Results taken from patent US9187430B2, “Poly (ADP-ribose) polymerase inhibitor” (CHENGDU DI'AO PHARMACEUTICAL GROUP CO., LTD., priority 2011, dated 2015).
≈ marks a conversion by molar mass, not a printed value.

Key:
[1] = Solubility test (thermodynamic solubility, HPLC external standard); format: physicochemical; conditions: aqueous buffer, thermodynamic from solid; pH=7.4 phosphate buffer, 25° C., shaken 24 hours; read-out: Water Solubility (PH = 7.4)
Method: In this test, excess amount of test sample was added into pH=7.4 phosphate buffer. Ultrasonic was performed for 30 min until the drug no longer dissolved. The solution was continuously shaked for 24 hours at a constant temperature of 25° C. to achieve a thermodynamic equilibrium of compound, and then the solution was filtrated to get filtrate. Quantitative analysis of compound in filtrate using external standard method is performed according to “Appendix VD High Performance Liquid Chromatography, Part II of Pharmacopeia 2010,” and the sample thermodynamic solubility in pH=7.4 phosphate buffered solution was determined.
Agilent 1200 LC, Phenomen C18 column (4.6 mm*150 mm, […]), mobile phase: methanol:water (60:40), flow rate: 1 mL/min, column temperature: 25° C., wave length: 230 nm, injection volume: 10 μL
About 30 mg test compound was put in a 10 mL volumetric flask, about 8 mL pH=7.4 phosphate buffer was added and ultrasonic was performed for 30 min, and the solution was shaked for 24 hours in a shaker at a constant temperature of 25° C. The solution was settled for half an hour under 25° C., filtered with […] hydrophilic filter. The filtrate was used as test sample.
Standard compound AZD-2281 was put in a volumetric flask and dissolved in the mobile phase. The solutions were injected to measure the peak area. The retention time of AZD-2281 was about 8.5 min. The peak area was regressed against concentration to get a regression equation y=29.66x+302.82 (r=0.9997), and the linear range is 52.45˜83.92 µg/mL (see FIG. 1).
The test solution was injected for three times according to the above chromatographic conditions. The peak area was measured to calculate the corresponding concentration.
The procedures for testing the solubility of other compounds were similar with compound AZD-2281.

[2] = tested on: triple-negative phenotypic breast cancer cell line MDA-MB-436; test: Cell proliferation inhibition assay (SRB method); format: cell-based; conditions: Homo sapiens, 144 h; BRCA-deficient MDA-MB-436, six days, compound alone
Source text: Cell Proliferation Inhibition Assay
This assay was used to study the effect of PARP-1 inhibitor alone for tumor suppression. Breast cancer susceptibility genes BRCA1 and BRCA2 play an important role in homologous recombination DNA repair. BRCA-deficient cells represent homologous recombination repair defect, if PARP-mediated DNA repair is inhibited at the same time, DNA damage in cells may be increased, resulting in chromatin abnormality or even cell death.
BRCA-deficient breast cancer cell line MDA-MB-436 was selected for the assay, PARP inhibitor was used alone to evaluate its damage effect on cells. The inhibition effect of the compound was expressed by IC50.
Breast cancer cell line MDA-MB-436 in good growth condition seeded in 96-well plates (5000 cells/well or 3000 cells/well, respectively), and cultured overnight in an incubator at 37° C., 5% CO2 with saturated humidity. On the next day, samples with a series of concentration gradients were added and cultured for another six days. SRB method was used to detect the samples' inhibition on cell growth and calculate their growth inhibition rate.

[3] = tested on: occlusion of the MCA in mice; conditions: intracerebroventricular administration; cited from earlier work
[4] = tested on: rat model of focal cerebral ischemia; conditions: i.p. 10 mg/kg two hours prior to and two hours after the initiation of ischemia; cited from earlier work

Compound | solubility at 24 h [1] [µg/mL] | IC50 [2] [µM] | other results
O=C(c1cc(Cc2n[nH]c(=O)c3ccccc23)ccc1F)N1CCN(C(=O)C2CC2)CC1 [AZD-2281, reference compound] | 531 (≈ 1220 µM) | 4.38 | –
NC(=O)c1cccc(N)c1 [Compound 3-AB, 3-aminobenzamide] | – | – | decrease in infarct volume [3]: 47%
C[C@@H](C(=O)N1CCN(C(=O)c2cc(Oc3n[nH]c(=O)c4ccccc34)ccc2F)CC1)c1ccccc1 [Compound 49, (R)-4-(4-fluoro-3-(4-(2-phenylpropionyl)piperazine-1-carbonyl)phenoxy)-2H-phthalazin-1-one] | – | 4.21 | –
CC(C)(C)C(=O)N1CCN(C(=O)c2cc(Oc3n[nH]c(=O)c4ccccc34)ccc2F)CC1 [Compound 55, 4-(4-fluoro-3-(4-pivaloylpiperazine-1-carbonyl)phenoxy)-2H-phthalazin-1-one] | 602 (≈ 1330 µM) | – | –
CCC(CC)C(=O)N1CCN(C(=O)c2cc(Oc3n[nH]c(=O)c4ccccc34)ccc2F)CC1 [Compound 61, 4-(3-(4-(2-ethylbutyryl)piperazine-1-carbonyl)-4-fluorophenoxy)-2H-phthalazin-1-one] | – | 1.98 | –
CC(C)N1CCN(C(=O)c2cc(Oc3n[nH]c(=O)c4ccccc34)ccc2F)CC1 [Compound 79, 4-(4-fluoro-3-(4-isopropyl-1-carbonyl)phenoxy)-2H-phthalazin-1-one] | 650 (≈ 1580 µM) | – | –
O=C(c1cc(Oc2n[nH]c(=O)c3ccccc23)ccc1F)N1CCN(C(=O)N2CCCCC2)CC1 [Compound 85, 4-(4-fluoro-3-(4-(piperidine-1-carbonyl)piperazine-1-carbonyl)phenoxy)-2H-phthalazin-1-one] | – | 3.35 | –
O=C(c1cc(Oc2n[nH]c(=O)c3ccccc23)ccc1F)N1CCN(C(=O)c2ccccc2[N+](=O)[O-])CC1 [Compound 88, 4-(4-fluoro-3-(4-(2-nitrobenzoyl)piperazine-1-carbonyl)phenoxy)-2H-phthalazin-1-one] | – | 3.28 | –
O=C(c1cc(Oc2n[nH]c(=O)c3ccccc23)ccc1F)N1CCN(C(=O)C2CCCCC2)CC1 [Compound 99] | – | 2.63 | –
CCC(=O)N1CCN(C(=O)c2cc(Oc3n[nH]c(=O)c4ccccc34)ccc2F)CC1 [Compound 100, 4-(4-fluoro-3-(4-propionylpiperazine-1-carbonyl)phenoxy)2H-phthalazin-1-one] | 660 (≈ 1560 µM) | 4.12 | –
O=C(c1cc(Oc2n[nH]c(=O)c3ccccc23)ccc1F)N1CCN(C(=O)C2CCC(F)(F)CC2)CC1 [Compound 107, 4-(3-(4-(4,4-difluorocyclohexanecarbonyl)piperazine-1-carbonyl)-4-fluorophenoxy)2H-phthalazin-1-one] | – | 3.17 | –
CN(C)C1(C(=O)N2CCN(C(=O)c3cc(Oc4n[nH]c(=O)c5ccccc45)ccc3F)CC2)CC1 [Compound 124, 4-(3-(4-(1-(dimethylamino)cyclopropanecarbonyl)piperazine-1-carbonyl)-4-fluorophenoxy)2H-phthalazin-1-one] | 1440 (≈ 3000 µM) | 3.7 | –
NC1(C(=O)N2CCN(C(=O)c3cc(Oc4n[nH]c(=O)c5ccccc45)ccc3F)CC2)CC1 [Compound 125, 4-(3-(4-(1-aminocyclopropanecarbonyl)piperazine-1-carbonyl)-4-fluorophenoxy)2H-phthalazin-1-one] | 671 (≈ 1490 µM) | – | –
CNC1(C(=O)N2CCN(C(=O)c3cc(Oc4n[nH]c(=O)c5ccccc45)ccc3F)CC2)CCC1 [Compound 127, 4-(4-fluoro-3-(4-(1-(methylamino)cyclobutanecarbonyl)piperazine-1-carbonyl)phenoxy)2H-phthalazin-1-one] | 630 (≈ 1310 µM) | – | –
C[C@]1(C(=O)N2CCN(C(=O)c3cc(Oc4n[nH]c(=O)c5ccccc45)ccc3F)CC2)CCCN1 [Compound 130, (R)-4-(4-fluoro-3-(4-(2-methylpyrrolidine-2-carbonyl)piperazine-1-carbonyl)phenoxy)-2H-phthalazin-1-one] | – | 3.85 | –
O=C1NCCc2c(OCCCCN3CCCCC3)cccc21 [DPQ, 3,4-dihydro-5-[4-(1-piperidinyl)butoxy]-1(2H)-isoquinolinone] | – | – | reduction in infarct volume [4]: 54%
